# Measurements from patent US20240100013A1, “SOTAGLIFLOZIN FOR IMPROVING LEFT ATRIAL FUNCTION” (CHARITÉ-UNIVERSITÄTSMEDIZIN BERLIN, priority 2021, published 2024).
# Experiments:
# [1] = tested on: LA cardiomyocytes; assay: Mitochondrial structure and Ca2+ uptake in LA cardiomyocytes; format: cell-based, rat; conditions: HFpEF
# From the text: For cell membrane permeabilization and subsequent measurements of mitochondrial Ca^2+ uptake (See ‘Mitochondrial structure and Ca^2+ uptake’) wash and internal solutions were used. Wash solution contained (in mM): 100 potassium acetate, 15 KCl, 0.35 EGTA, 0.75 MgCl2, 10 HEPES; pH adjusted to 7.2 with KOH. Internal solution contained (in mM): 125 KCl, 10 NaCl, 20 HEPES, 5 pyruvate, 2 maleic acid, 2 glutamic acid, 0.5 KH2PO4, 0.5 MgCl2, 5 EGTA, 0.002 free Ca^2+(MaxChelator), 15 BDM, pH adjusted to 7.2 with KOH. For permeabilization, 0.005% saponin was added to the internal solution.
# Mitochondrial structure and Ca^2+ uptake. Mitochondrial structure was visualized by local thresholding of two-dimensional images acquired with MitoTracker Red (FIGS. 5A-B, 6D) and MitoTracker Green (FIGS. 4C-F) at an LSM 800 laser scanning microscope (Zeiss, Oberkochen, Germany). The fraction of mitochondria in relation to cell surface was taken as a measure of mitochondrial density. The averaged perimeter to area ratio of mitochondrial structures per cell was calculated as an indicator of mitochondrial fission using a 2-step Otsu thresholding algorithm. See Hohendanner F, Ljubojevic S, MacQuaide N, Sacherer M, Sedej S, Biesmans L, Wakula P, Platzer D, Sokolow S, Herchuelz A et al: “Intracellular dyssynchrony of diastolic cytosolic [Ca(2)(+)] decay in ventricular cardiomyocytes in cardiac remodeling and human heart failure,” Circ Res 2013, 113(5):527-538.
# Mitochondrial Ca^2+ uptake was determined as previously described in detail. See Maxwell J T, Tsai C H, Mohiuddin T A, Kwong J Q: “Analyses of Mitochondrial Calcium Influx in Isolated Mitochondria and Cultured Cells,” Journal of visualized experiments: JoVE 2018(134). LA cardiomyocytes were loaded with Rhod-2 AM and MitoTracker green, transferred to an LSM 800 laser scanning microscope and washed twice with sodium and calcium-free wash solution. The cells were then permeabilized with internal solution containing 0.005% saponin for a duration of 30-60 s and consecutively washed twice with nominal Ca^2+ free internal solution containing 5 mM EGTA. Two-dimensional images of Rhod-2 (excitation: 559 nm, emission: 575-675 nm) and MitoTracker green fluorescence (excitation: 488 nm, emission: 505-525 nm) were obtained. The perfusion was switched to internal solution containing 2 μM Ca^2+. After 1 min, a second set of Rhod-2/MitoTracker images was obtained. Following another 1-min interval, a third set of images was obtained to confirm that mitochondrial Ca^2+ uptake had indeed been completed in the second set. A binary mask of mitochondrial structures was derived from MitoTracker green images and positive pixels defined as the region-of-interest for sub-sequent determination of Rhod-2 signal intensity (F). Signal intensity during perfusion with 0 μM Ca^2+ was defined as F0 and changes of [Ca^2+] after exposure to 2 μM Ca^2+ expressed as ΔF=F−F0. The change of mitochondrial density (L.%) was quantified as a measure of mitochondrial swelling.
# [2] = tested on: LA cardiomyocytes; assay: Mitochondrial depolarization (TMRE) in LA cardiomyocytes; format: cell-based, rat; conditions: differences between groups
# Method: Mitochondrial depolarization. LA cardiomyocytes were loaded with TMRE and MitoTracker green, transferred to an LSM 800 laser scanning microscope and kept in Tyrode's solution containing 2 mM Ca^2+ and 10 nM TMRE. Two-dimensional images of TMRE (excitation: 561 nm, emission: 565-585 nm) and MitoTracker green fluorescence (excitation: 488 nm, emission: 505-525 nm) were acquired for a duration of 6 min (interval: 2 s, resolution: 512×512 px, pixel size: 1.25 μm, pixel time: 1.03 μs, laser intensity: 4%). A binary mask of both channels was derived using a Bernsen thresholding algorithm (ImageJ). Positive pixels of the MitoTracker green image were defined as mitochondria and a positive overlay of the TMRE image assumed to indicate a polarized state. The standard deviation of polarized mitochondria over time was taken as a measure of spatiotemporal oscillation.
# [3] = tested on: LA cardiomyocytes; assay: ROS production (H2-DCF) in LA cardiomyocytes; format: cell-based, rat; conditions: HFpEF
# Method: ROS production. LA cardiomyocytes were starved of glucose for 1 h at 37° C., loaded with H2-DCF and transferred to an LSM 800 laser scanning microscope. Two-dimensional images (excitation: 488 nm, emission: […]) were acquired for a duration of 30 s (interval: 2 s, resolution: 256×256 px, pixel size: 0.624 μm, pixel time: 8.24 μs, laser intensity: 0.6%). Cells were exposed to 30 mM glucose and another set of images acquired for a duration of 90 s. Image sequences acquired between 0-30 s (glucose starved) and 90-120 s (glucose saturated) were individually assessed. H2-DCF signal intensity (F) of the initial image was defined as F0, reactive oxygen species (ROS) accumulation calculated as ΔF=F−F0 per image, averaged per image sequence and reported as the respective rate ΔF/(F0*t).
# [4] = rats; 30 mg/kg/day; cited from earlier work
smiles,measurement,setting,value
"CCOc1ccc(Cc2cc([C@@H]3O[C@H](SC)[C@@H](O)[C@H](O)[C@H]3O)ccc2Cl)cc1 [sotagliflozin, (2S,3R,4R,5S,6R)-2-(4-chloro-3-(4-ethoxybenzyl)phenyl)-6-(methylthio)tetrahydro-2H-pyran-3,4,5-triol]",increased density of mitochondria in LA cardiomyocytes,[1],prevented
same,increase of mitochondrial Ca2+ uptake,[1]; Sota vs vehicle,two-fold increase
same,mitochondrial fission,[1]; after 1 h glucose starvation,significantly reduced
same,swelling of mitochondria,[1]; after exposure to 2 μM Ca2+,this effect did not occur
same,mitochondrial Ca2+ uptake,"[1]; permeabilized cells, exposure from 0 μM to 2 μM Ca2+, vehicle 0.84±0.07",1.76±0.27 AF/F0
same,incidence and spatial distribution of mitochondrial depolarizations,[2],could not be detected
same,decrease of ROS production after reintroduction of glucose,[3]; 30 mM glucose,this effect could not be observed
same,ROS production,[3]; after 1 h glucose starvation,significantly reduced
same,urinary glucose secretion,[4],near maximal
